Assay results from the supplement of paper PMC10627819.

Legend:
[1] = test system: B. subtilis 168; assay: fitness (endpoint OD595 vs no drug) (fraction); higher = more growth
Method in brief: (§1)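 Background-subtracted growth curves were the basis for fitness, taken as the optical density at entry into stationary phase over the robust mean of no-drug control wells. A cap of 1 was applied. The curves came from OD595 readings every 30 min for 14 h at 37 °C, in 384-well plates seeded at OD595 0.01 with 30 µl, or 55 µl for S. pneumoniae.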

[2] = test system: S. aureus DSM 20231; assay: as above
Method in brief: as §1

[3] = test system: S. aureus Newman; assay: as above
Method in brief: as §1

[4] = test system: S. pneumoniae D39V; assay: as above
Method in brief: as §1

[5] = test system: B. subtilis 168; assay: Bliss interaction score (quartile over a dose matrix) (fitness difference); higher = more antagonism (negative = synergy)
Method in brief: (§2)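 Each OD595 reading at entry into stationary phase was scaled to the robust mean of the untreated wells on its plate, with a ceiling of 1. These ratios define fitness, and single-drug fitness was inferred from combinations. The Bliss score compares observed fitness with the product-based expectation and is reported as quartiles across all replicate types, technical, biological and donor/recipient.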

[6] = test system: S. aureus DSM 20231; assay: as above
Method in brief: as §2

[7] = test system: S. aureus Newman; assay: as above
Method in brief: as §2

[8] = test system: S. pneumoniae D39V; assay: as above
Method in brief: as §2
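Throughout, for Bliss interaction score (quartile over a dose matrix): first quartile when negative (synergy) and third quartile when positive (antagonism).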

CO/N=C(\C(=O)N[C@@H]1C(=O)N2C(C(=O)O)=C(COC(C)=O)CS[C@H]12)c1csc(N)n1 [Cefotaxime] + CN1C2=CC=CC=C2N=C3C1=CC=CC3=O [Pyocyanin]
fitness, one replicate
Settings	partner 1.25 µg/mL	partner 2.5 µg/mL	partner 5 µg/mL
[1], first compound 0.00775 µg/mL	0.775	0.712	0.534
[1], first compound 0.0155 µg/mL	0.665	0.543	0.407
[1], first compound 0.031 µg/mL	0.522	0.462	0.35
[2], first compound 0.039 µg/mL	0.748	0.738	0.512
[3], first compound 0.039 µg/mL	0.677	0.696	0.424
[3], first compound 0.625 µg/mL	0.0517	0.0483	0.0237
[3], first compound 1.25 µg/mL	0.0559	0.0861	0.0706
[3], first compound 2.5 µg/mL	0.0452	0.0518	0.0704

fitness
Settings	partner 0.325 µg/mL	partner 0.65 µg/mL	partner 1.25 µg/mL	partner 1.3 µg/mL	partner 2.5 µg/mL	partner 5 µg/mL
[1], first compound 0.5 µg/mL	–	–	0.291	–	0.264	0.229
[1], first compound 1 µg/mL	–	–	0.144	–	0.102	0.111
[1], first compound 2 µg/mL	–	–	0.0757	–	0.0908	0.0747
[2], first compound 0.078 µg/mL	–	–	0.746	–	0.766	0.55
[2], first compound 0.156 µg/mL	–	–	0.757	–	0.746	0.511
[2], first compound 0.312 µg/mL	–	–	0.676	–	0.671	0.474
[3], first compound 0.078 µg/mL	–	–	0.671	–	0.654	0.399
[3], first compound 0.156 µg/mL	–	–	0.527	–	0.552	0.354
[3], first compound 0.312 µg/mL	–	–	0.311	–	0.319	0.204
[4], first compound 0.0018 µg/mL	0.992	≥ 1	–	0.904	–	–
[4], first compound 0.0035 µg/mL	0.98	≥ 1	–	0.871	–	–
[4], first compound 0.007 µg/mL	0.934	0.947	–	0.839	–	–

Settings	Bliss interaction score
[5]	0.0372
[6]	0.0641
[7]	0.0647
[8]	0.0458

COc1cccc2c1C(=O)c1c(O)c3c(c(O)c1C2=O)C[C@@](O)(C(=O)CO)C[C@@H]3O[C@H]1C[C@H](N)[C@H](O)[C@H](C)O1 [Doxorubicin] + CN(N=O)C(=O)N[C@@H](C=O)[C@@H](O)[C@H](O)[C@H](O)CO [Streptozotocin]
fitness
Settings	first compound 0.25 µg/mL	first compound 0.5 µg/mL	first compound 0.625 µg/mL	first compound 1 µg/mL	first compound 1.25 µg/mL	first compound 2.5 µg/mL
[1], partner 0.15 µg/mL	–	–	0.961	–	0.957	0.663
[1], partner 0.3 µg/mL	–	–	≥ 1	–	0.956	0.582
[1], partner 0.6 µg/mL	–	–	0.993	–	0.939	0.627
[2], partner 0.15 µg/mL	–	–	0.762	–	0.828	0.787
[2], partner 0.3 µg/mL	–	–	0.741	–	0.726	0.746
[2], partner 0.6 µg/mL	–	–	0.631	–	0.651	0.595
[3], partner 0.15 µg/mL	–	–	0.702	–	0.7	0.709
[3], partner 0.3 µg/mL	–	–	0.656	–	0.68	0.646
[3], partner 0.6 µg/mL	–	–	0.607	–	0.604	0.541
[4], partner 1.2 µg/mL	0.919	0.929	–	0.852	–	–
[4], partner 2.4 µg/mL	0.898	0.919	–	0.866	–	–
[4], partner 4.8 µg/mL	0.966	0.972	–	0.91	–	–

Settings	Bliss interaction score
[5]	0.0771
[6]	-0.0251
[7]	0.11
[8]	0.0618

C[C@@H]1O[C@@H]1P(=O)(O)O [Fosfomycin] + CN(N=O)C(=O)N[C@@H](C=O)[C@@H](O)[C@H](O)[C@H](O)CO [Streptozotocin]
fitness
Settings	partner 0.15 µg/mL	partner 0.3 µg/mL	partner 0.6 µg/mL	partner 1.2 µg/mL	partner 2.4 µg/mL	partner 4.8 µg/mL
[1], first compound 1.562 µg/mL	0.682	0.688	0.69	–	–	–
[1], first compound 3.124 µg/mL	0.609	0.588	0.579	–	–	–
[1], first compound 6.248 µg/mL	0.432	0.42	0.435	–	–	–
[2], first compound 0.781 µg/mL	0.717	0.627	0.549	–	–	–
[2], first compound 1.562 µg/mL	0.59	0.533	0.509	–	–	–
[2], first compound 3.124 µg/mL	0.476	0.441	0.292	–	–	–
[3], first compound 0.781 µg/mL	0.526	0.501	0.462	–	–	–
[3], first compound 1.562 µg/mL	0.491	0.455	0.342	–	–	–
[3], first compound 3.124 µg/mL	0.129	0.146	0.0801	–	–	–
[4], first compound 1.25 µg/mL	–	–	–	0.898	0.934	0.952
[4], first compound 2.5 µg/mL	–	–	–	0.899	0.923	0.952
[4], first compound 5 µg/mL	–	–	–	0.732	0.703	0.747

Settings	Bliss interaction score
[5]	-0.108
[6]	-0.0585
[7]	-0.0994
[8]	-0.0567

CO/N=C(\C(=O)N[C@@H]1C(=O)N2C(C(=O)O)=C(COC(C)=O)CS[C@H]12)c1csc(N)n1 [Cefotaxime] + Cc1onc(-c2ccccc2)c1C(=O)N[C@@H]1C(=O)N2[C@@H]1SC(C)(C)[C@@H]2C(=O)O [Oxacillin]
one replicate
Settings	fitness
[1], first compound 0.00775 µg/mL, partner 0.0078 µg/mL	0.82
[1], first compound 0.00775 µg/mL, partner 0.0155 µg/mL	0.789
[1], first compound 0.00775 µg/mL, partner 0.031 µg/mL	0.741
[1], first compound 0.0155 µg/mL, partner 0.0078 µg/mL	0.644
[1], first compound 0.0155 µg/mL, partner 0.0155 µg/mL	0.664
[1], first compound 0.0155 µg/mL, partner 0.031 µg/mL	0.548
[1], first compound 0.031 µg/mL, partner 0.0078 µg/mL	0.482
[1], first compound 0.031 µg/mL, partner 0.0155 µg/mL	0.537
[1], first compound 0.031 µg/mL, partner 0.031 µg/mL	0.395
[1], first compound 0.0625 µg/mL, partner 0.075 µg/mL	0.0512
[1], first compound 0.0625 µg/mL, partner 0.15 µg/mL	0.0585
[1], first compound 0.0625 µg/mL, partner 0.3 µg/mL	0.0527
[1], first compound 0.125 µg/mL, partner 0.075 µg/mL	0.0627
[1], first compound 0.125 µg/mL, partner 0.15 µg/mL	0.0636
[1], first compound 0.125 µg/mL, partner 0.3 µg/mL	0.0489
[1], first compound 0.25 µg/mL, partner 0.075 µg/mL	0.0575
[1], first compound 0.25 µg/mL, partner 0.15 µg/mL	0.0677
[1], first compound 0.25 µg/mL, partner 0.3 µg/mL	0.0596
[3], first compound 0.039 µg/mL, partner 0.0156 µg/mL	0.689
[3], first compound 0.039 µg/mL, partner 0.0312 µg/mL	0.662
[3], first compound 0.039 µg/mL, partner 0.0625 µg/mL	0.629
[3], first compound 0.312 µg/mL, partner 0.0156 µg/mL	0.317
[3], first compound 0.312 µg/mL, partner 0.0312 µg/mL	0.224
[3], first compound 0.312 µg/mL, partner 0.0625 µg/mL	0.181

Settings	fitness
[1], first compound 0.5 µg/mL, partner 0.002 µg/mL	0.272
[1], first compound 0.5 µg/mL, partner 0.008 µg/mL	0.249
[1], first compound 1 µg/mL, partner 0.002 µg/mL	0.158
[1], first compound 1 µg/mL, partner 0.004 µg/mL	0.118
[1], first compound 1 µg/mL, partner 0.008 µg/mL	0.133
[1], first compound 2 µg/mL, partner 0.002 µg/mL	0.115
[1], first compound 2 µg/mL, partner 0.004 µg/mL	0.114
[1], first compound 2 µg/mL, partner 0.008 µg/mL	0.113
[2], first compound 0.039 µg/mL, partner 0.0156 µg/mL	0.696
[2], first compound 0.039 µg/mL, partner 0.0312 µg/mL	0.624
[2], first compound 0.039 µg/mL, partner 0.0625 µg/mL	0.632
[2], first compound 0.078 µg/mL, partner 0.0156 µg/mL	0.681
[2], first compound 0.078 µg/mL, partner 0.0312 µg/mL	0.655
[2], first compound 0.078 µg/mL, partner 0.0625 µg/mL	0.639
[2], first compound 0.156 µg/mL, partner 0.0156 µg/mL	0.599
[2], first compound 0.156 µg/mL, partner 0.0312 µg/mL	0.623
[2], first compound 0.156 µg/mL, partner 0.0625 µg/mL	0.655
[2], first compound 0.312 µg/mL, partner 0.0156 µg/mL	0.593
[2], first compound 0.312 µg/mL, partner 0.0312 µg/mL	0.594
[2], first compound 0.312 µg/mL, partner 0.0625 µg/mL	0.478
[3], first compound 0.078 µg/mL, partner 0.0156 µg/mL	0.745
[3], first compound 0.078 µg/mL, partner 0.0312 µg/mL	0.627
[3], first compound 0.078 µg/mL, partner 0.0625 µg/mL	0.531
[3], first compound 0.156 µg/mL, partner 0.0156 µg/mL	0.6
[3], first compound 0.156 µg/mL, partner 0.0312 µg/mL	0.555
[3], first compound 0.156 µg/mL, partner 0.0625 µg/mL	0.38
[3], first compound 0.625 µg/mL, partner 0.0156 µg/mL	0.0697
[3], first compound 0.625 µg/mL, partner 0.0312 µg/mL	0.0379
[3], first compound 0.625 µg/mL, partner 0.0625 µg/mL	0.0206
[3], first compound 1.25 µg/mL, partner 0.0156 µg/mL	0.0601
[3], first compound 1.25 µg/mL, partner 0.0312 µg/mL	0.0503
[3], first compound 1.25 µg/mL, partner 0.0625 µg/mL	0.0594
[3], first compound 2.5 µg/mL, partner 0.0156 µg/mL	0.0599
[3], first compound 2.5 µg/mL, partner 0.0312 µg/mL	0.0551
[3], first compound 2.5 µg/mL, partner 0.0625 µg/mL	0.0574
[4], first compound 0.0018 µg/mL, partner 0.005 µg/mL	0.999
[4], first compound 0.0018 µg/mL, partner 0.01 µg/mL	0.983
[4], first compound 0.0018 µg/mL, partner 0.02 µg/mL	0.937
[4], first compound 0.0018 µg/mL, partner 0.04 µg/mL	0.345
[4], first compound 0.0035 µg/mL, partner 0.005 µg/mL	≥ 1
[4], first compound 0.0035 µg/mL, partner 0.01 µg/mL	0.979
[4], first compound 0.0035 µg/mL, partner 0.02 µg/mL	0.874
[4], first compound 0.0035 µg/mL, partner 0.04 µg/mL	0.189
[4], first compound 0.007 µg/mL, partner 0.005 µg/mL	0.979
[4], first compound 0.007 µg/mL, partner 0.04 µg/mL	0.0612

Settings	Bliss interaction score
[5]	0.0466
[6]	0.0453
[7]	0.0747
[8]	-0.116
